From patent publication US9023874B2, “Fluorinated oxa or thia heteroarylalkylsulfide derivatives for combating invertebrate pests” (Merial, Inc., priority 2009, dated 2015)

Legend:
Type in all cases: in vivo
[1] = test system: cowpea aphid (Aphis craccivora); experiment: Activity against cowpea aphid, sprayed potted cowpea plants; conditions: spray, population reduction assessed after 24, 72 and 120 hours, read-out: mortality in comparison with untreated controls
Procedure: The active compounds were formulated in 50:50 (vohvol) acetone:water. The test solution was prepared at the day of use.
Potted cowpea plants colonized with 100-150 aphids of various stages were sprayed after the pest population had been recorded. Population reduction was assesed after 24, 72, and 120 hours.

[2] = test system: vetch aphid (Megoura viciae); experiment: Activity against vetch aphid, sprayed bean leaf disks in microtiter plates; conditions: foliar, 144 h, test solution 2500 mg/L, leaf disk spray, 6 days, read-out: mortality in comparison with untreated controls
Procedure: The active compounds were formulated in 1:3 (vol:vol) DMSO:water with different concentrations of formulated compounds.
Bean leaf disks were placed into microtiterplates filled with 0.8% agar-agar and 2.5 ppm OPUST™. The leaf disks were sprayed with 2.5 μl of the test solution and 5 to 8 adult aphids were placed into the microtiterplates which were then closed and kept at 23±1° C. and 50±5% relative humidity under fluorescent light for 6 days. Mortality was assessed on the basis of vital, reproduced aphids. Aphid mortality and fecundity was then visually assessed.

[3] = test system: boll weevil (Anthonomus grandis); experiment: Activity against boll weevil, insect diet with eggs in microtiter plates; conditions: 120 h, test solution 2500 mg/L, sprayed onto diet, 5 days, read-out: mortality (egg and larval) in comparison with untreated controls
Procedure: The compounds were formulated in 75:25 (vohvol) water:DMSO.
For evaluating control of boll weevil (Anthonomus grandis) the test unit consisted of 24-well-microtiter plates containing an insect diet and 20-30 A. grandis eggs. Different concentrations of formulated compounds were sprayed onto the insect diet at 20 μI, using a custom built micro atomizer, at two replications. After application, the microtiter plates were incubated at 23±1° C. and 50±5% relative humidity for 5 days. Egg and larval mortality was then visually assessed.

[4] = test system: Vanda/orchid thrips (Dichromothrips corbetti); experiment: Activity against Vanda/orchid thrips, dipped orchid petals; conditions: petal dip, after 72 hours, read-out: mortality in comparison with untreated controls
Procedure: The active compounds were formulated as a 50:50 (vohvol) acetone:water solution. Surfactant (Alkamuls® EL 620 from Rhodia) was added at the rate of 0.1% (vol/vol). Vanda orchids petals were cleaned, washed and air dried prior to dipping. Petals were dipped into the test solution for 3 seconds, air dried, placed inside a resealable plastic and inoculated with 20 adults. The treated petals were kept inside the holding room at 28-29° C. and relative humidity of 50-60%. Percent mortality was recorded after 72 hours.

[5] = test system: brown planthopper (Nilaparvata lugens); experiment: Activity against brown planthopper, sprayed rice seedlings; conditions: spray, after 72 hours, read-out: mortality in comparison with untreated controls
Procedure: The active compounds were formulated as a 50:50 (vohvol) acetone:water solution. Surfactant (Alkamuls® EL 620 from Rhodia) was added at the rate of 0.1% (vol/vol).
Rice seedlings were cleaned and washed 24 h before spraying. Potted rice seedlings were sprayed with 5 ml test solution, air dried, placed in cages and inoculated with 10 adults. Treated rice plants were kept at 28-29° C. and relative humidity of 50-60%. Percent mortality was recorded after 72 hours.

[6] = test system: diamondback moth (Plutella xylostella); experiment: Activity against diamondback moth, dipped cabbage leaf disk; conditions: foliar, test solution 500 ppm, leaf dip, third instar larvae, after 72 h, read-out: mortality in comparison with untreated controls
Procedure: The active compounds were formulated in 50:50 acetone:water and 0.1% (vol/vol) Alkamuls® EL 620 surfactant. A 6 cm leaf disk of cabbage leaves was dipped in the test solution for 3 seconds and allowed to air dry in a Petri plate lined with moist filter paper. The leaf disk was inoculated with 10 third instar larvae and kept at 25-27° C. and 50-60% humidity for 3 days. Mortality was assessed after 72 h of treatment.

[7] = test system: Mediterranean fruitfly (Ceratitis capitata); experiment: Activity against Mediterranean fruitfly, insect diet with eggs in microtiter plates; conditions: 120 h, sprayed onto diet with eggs, 5 days, read-out: mortality (egg and larval)
Procedure: The active compounds were formulated in 1:3 (vohvol) DMSO:water.
For evaluating control of Mediterranean fruitfly the test unit consisted of microtiter plates containing an insect diet and 50 to 80 C. capitata eggs.
Different concentrations of formulated compounds were sprayed onto the insect diet at 5 μI, using a custom built micro atomizer, at two replications. After application, microtiter plates were incubated at 28±1° C. and 80±5% relative humidity for 5 days. Egg and larval mortality was then visually assessed.

[8] = test system: silverleaf whitefly (Bemisia argentifolii, adult); experiment: Activity against silverleaf whitefly adults, sprayed cotton plants; conditions: 72 h, spray, 3 days after treatment, read-out: mortality in comparison with untreated controls
Procedure: The active compounds were formulated in cyclohexanone as a 10,0000 ppm solution supplied in 1.3 ml ABgene® tubes. These tubes were inserted into an automated electrostatic sprayer equipped with an atomizing nozzle and they served as stock solutions for which lower dilutions were made in 50% acetone:50% water (v/v). A nonionic surfactant (Kinetic®) was included in the solution at a volume of 0.01% (v/v).
Cotton plants at the cotyledon stage (one plant per pot) were sprayed by an automated electrostatic plant sprayer equipped with an atomizing spray nozzle. The plants were dried in the sprayer fume hood and then removed from the sprayer. Each pot was placed into a plastic cup and 10 to 12 whitefly adults (approximately 3-5 days old) were introduced. The insects were collected using an aspirator and 0.6 cm, nontoxic Tygon® tubing (R-3603) connected to a barrier pipette tip. The tip, containing the collected insects, was then gently inserted into the soil containing the treated plant, allowing insects to crawl out of the tip to reach the foliage for feeding. Cups were covered with a reusable screened lid (150-micron mesh polyester screen PeCap from Tetko, Inc.). […] Mortality was assessed 3 days after treatment, compared to untreated control plants.

Row | Structure (SMILES) | mortality at 500 ppm [1] | mortality at 2500 µg/mL [2] | mortality at 2500 µg/mL [3] | mortality at 500 ppm [4] | mortality at 500 ppm [5] | mortality at 500 ppm [6] | mortality at 2500 ppm [7] | mortality at 500 ppm [8]
1 | CC(c1nnc(C(F)(F)F)s1)[S+]([O-])CCSC(F)(F)F (centres unmarked) [11-3, 2-(Trifluoromethyl)-5-{1-[2-(trifluoromethylthio)ethylsulfinyl]ethyl}-1,3,4-thiadiazole] | ≥ 75% | 100% | 100% | ≥ 75% | ≥ 75% | ≥ 75% | – | –
2 | CC(SCCSC(F)(F)F)c1nnc(C(F)(F)F)s1 (centres unmarked) [11-1, 2-(Trifluoromethyl)-5-{1-[2-(trifluoromethylthio)ethylthio]ethyl}-1,3,4-thiadiazole] | – | 100% | 100% | – | – | – | – | –
3 | CC(Cl)(c1nnc(C(F)(F)F)s1)[S+]([O-])CCSC(F)(F)F (centres unmarked) [11-8, 2-{1-Chloro-1-[2-(trifluoromethylthio)ethylsulfinyl]ethyl}-5-(trifluoromethyl)-1,3,4-thiadiazole] | – | – | 100% | – | ≥ 75% | – | – | –
4 | CC(C#N)(SCCSC(F)(F)F)c1nnc(C(F)(F)F)s1 (centres unmarked) [11-9, 2-(5-(trifluoromethyl)-1,3,4-thiadiazol-2-yl)-2-(2-(trifluoromethylthio)ethylthio)propanenitrile] | – | – | – | – | – | – | ≥ 50% | –
5 | CC(c1nnc(C(F)(F)F)s1)S(=O)(=O)CCSC(F)(F)F (centres unmarked) [11-2, 2-(Trifluoromethyl)-5-{1-[2-(trifluoromethylthio)ethylsulfonyl]-ethyl}-1,3,4-thiadiazole] | ≥ 75% | 100% | 100% | ≥ 75% | – | – | ≥ 50% | ≥ 75%
